Emax and EC50 data for 24 molecules are collected here from patent publication US11149054B2, “Oxysterols and methods of use thereof” (Sage Therapeutics, Inc., priority 2016, dated 2021).

What is called Emax is the greatest response seen or fitted, relative to the assay's reference. As a reminder, the EC50 is the concentration at which the effect is half-maximal.

Experiment [1] has as its target GluN2B glutamate receptors (Homo sapiens (Human), UniProt Q05586+Q13224). Description: Whole-cell patch clamp of mammalian cells (Ionworks Barracuda), positive allosteric modulation, GluN2B. Particulars: for Emax: read-out: Avg Emax 2B (%). The class given is cell-based. The procedure: (§1) The measurements were performed using Ion Works Barracuda platform following this procedure:
(§2) Electrophysiological Procedures:
(§3) • a) Intracellular solution (mM): 50 mM CsCl, 90 mM CsF, 2 mM MgCl2, 5 mM EGTA, 10 mM HEPES. Adjust to pH 7.2 with CsOH. • b) Extracellular solution, HB-PS (composition in mM): NaCl, 137; KCl, 1.0; CaCl2), 5; HEPES, 10; Glucose, 10; pH adjusted to 7.4 with NaOH (refrigerated until use). • c) Holding potential: −70 mV, potential during agonist/PAM application: −40 mV. Recording Procedure: • a) Extracellular buffer will be loaded into the PPC plate wells (11 μL per well). Cell suspension will be pipetted into the wells (9 μL per well) of the PPC planar electrode. • b) Whole-cell recording configuration will be established via patch perforation with membrane currents recorded by on-board patch clamp amplifiers. • c) Two recordings (scans) will be performed. First, during pre-application of test article alone (duration of pre-application—[…]) and second, during test articles and agonist (EC20 L-glutamate and 30 μM glycine) co-application to detect positive modulatory effects of the test article. […] Potentiating Effect of Positive Allosteric Modulators (PAM) on the Channel
(§4) PAM concentration-response data will be fitted to an equation of the form: % Activation=% L-glutamate EC20+{(% MAX−% L-glutamate EC20)/[1+([Test]/EC50)^N]}, where [Test] will be the concentration of PAM (test article), EC50 will be the concentration of PAM producing half-maximal activation, N will be the Hill coefficient, % L-glutamate EC20 will be the percentage of the current Elicited with L-glutamate EC20, % MAX is the percentage of the current activated with the highest dose of PAM co-admitted with L-glutamate EC20 and % Activation will be the percentage of the current elicited with L-glutamate EC10-30 at each PAM concentration. The maximal amplitude of the evoked currents are measured and defined as Peak Current Amplitude (PCA).

Experiment [2] has as its target GlunN1/GluN2A glutamate receptors (Homo sapiens (Human), UniProt Q05586+Q12879). Briefly: Whole-cell patch clamp of mammalian cells (Ionworks Barracuda), positive allosteric modulation, GluN1/GluN2A. The class given is cell-based. On the procedure:
as §1, §2, §3, §4
On the technique in general: In patch-clamp work, channel activity is measured electrically.

The mark [3] stands for this setting: % potentiation of current elicited with EC20 L-glutamate and 30 μM glycine.
Where [4] appears, read: HEK293 cells, % potentiation of current elicited with EC20 L-glutamate and 30 μM glycine, read-out: Avg Emax 2A (%).
Where [5] appears, read: HEK293 cells, co-application with EC20 L-glutamate and 30 μM glycine, 8-point concentration-response, read-out: Avg EC50 2A.
Where [6] appears, read: co-application with EC20 L-glutamate and 30 μM glycine, 8-point concentration-response, read-out: Avg EC50 2B.

Where two headings read alike, the source gives them in different places.

Sequence of GluN2B glutamate receptors (Q13224 27-1484, other chains not shown): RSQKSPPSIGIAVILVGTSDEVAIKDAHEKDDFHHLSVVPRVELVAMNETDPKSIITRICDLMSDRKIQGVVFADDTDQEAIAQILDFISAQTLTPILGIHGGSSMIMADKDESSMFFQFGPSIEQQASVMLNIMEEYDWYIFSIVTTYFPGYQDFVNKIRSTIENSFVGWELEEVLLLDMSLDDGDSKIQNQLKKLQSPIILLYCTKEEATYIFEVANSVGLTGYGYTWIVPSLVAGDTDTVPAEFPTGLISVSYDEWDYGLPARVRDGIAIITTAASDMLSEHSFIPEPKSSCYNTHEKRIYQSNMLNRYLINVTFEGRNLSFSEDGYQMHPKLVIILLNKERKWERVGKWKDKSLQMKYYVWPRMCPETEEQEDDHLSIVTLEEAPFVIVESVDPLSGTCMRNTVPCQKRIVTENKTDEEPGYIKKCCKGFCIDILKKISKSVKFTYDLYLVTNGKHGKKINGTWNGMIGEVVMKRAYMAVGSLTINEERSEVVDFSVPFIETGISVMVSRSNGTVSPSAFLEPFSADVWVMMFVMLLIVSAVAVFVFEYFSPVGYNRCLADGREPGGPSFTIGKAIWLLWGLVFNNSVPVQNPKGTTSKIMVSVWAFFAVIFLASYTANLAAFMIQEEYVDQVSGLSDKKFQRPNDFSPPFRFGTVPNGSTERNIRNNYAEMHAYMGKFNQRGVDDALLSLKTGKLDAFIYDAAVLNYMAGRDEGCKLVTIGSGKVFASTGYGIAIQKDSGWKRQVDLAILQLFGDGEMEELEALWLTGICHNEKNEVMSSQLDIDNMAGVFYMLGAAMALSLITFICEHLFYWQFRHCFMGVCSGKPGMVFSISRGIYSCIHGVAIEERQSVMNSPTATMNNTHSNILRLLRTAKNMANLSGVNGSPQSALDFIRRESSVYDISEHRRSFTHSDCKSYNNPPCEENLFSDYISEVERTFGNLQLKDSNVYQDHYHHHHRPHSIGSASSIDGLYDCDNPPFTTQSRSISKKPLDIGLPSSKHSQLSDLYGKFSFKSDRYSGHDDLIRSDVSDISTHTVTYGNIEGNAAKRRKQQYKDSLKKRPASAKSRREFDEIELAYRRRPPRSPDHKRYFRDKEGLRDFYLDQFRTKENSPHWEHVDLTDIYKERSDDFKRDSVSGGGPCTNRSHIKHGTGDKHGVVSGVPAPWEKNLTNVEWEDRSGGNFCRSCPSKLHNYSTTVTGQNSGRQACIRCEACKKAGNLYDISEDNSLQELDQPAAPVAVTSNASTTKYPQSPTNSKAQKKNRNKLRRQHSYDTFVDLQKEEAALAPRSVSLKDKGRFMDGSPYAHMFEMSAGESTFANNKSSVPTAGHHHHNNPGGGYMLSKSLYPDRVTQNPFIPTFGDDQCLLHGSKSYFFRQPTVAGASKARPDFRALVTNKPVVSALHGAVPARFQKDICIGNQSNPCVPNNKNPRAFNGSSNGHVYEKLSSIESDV
Sequence of GlunN1/GluN2A glutamate receptors (Q12879 23-1464, other chains not shown): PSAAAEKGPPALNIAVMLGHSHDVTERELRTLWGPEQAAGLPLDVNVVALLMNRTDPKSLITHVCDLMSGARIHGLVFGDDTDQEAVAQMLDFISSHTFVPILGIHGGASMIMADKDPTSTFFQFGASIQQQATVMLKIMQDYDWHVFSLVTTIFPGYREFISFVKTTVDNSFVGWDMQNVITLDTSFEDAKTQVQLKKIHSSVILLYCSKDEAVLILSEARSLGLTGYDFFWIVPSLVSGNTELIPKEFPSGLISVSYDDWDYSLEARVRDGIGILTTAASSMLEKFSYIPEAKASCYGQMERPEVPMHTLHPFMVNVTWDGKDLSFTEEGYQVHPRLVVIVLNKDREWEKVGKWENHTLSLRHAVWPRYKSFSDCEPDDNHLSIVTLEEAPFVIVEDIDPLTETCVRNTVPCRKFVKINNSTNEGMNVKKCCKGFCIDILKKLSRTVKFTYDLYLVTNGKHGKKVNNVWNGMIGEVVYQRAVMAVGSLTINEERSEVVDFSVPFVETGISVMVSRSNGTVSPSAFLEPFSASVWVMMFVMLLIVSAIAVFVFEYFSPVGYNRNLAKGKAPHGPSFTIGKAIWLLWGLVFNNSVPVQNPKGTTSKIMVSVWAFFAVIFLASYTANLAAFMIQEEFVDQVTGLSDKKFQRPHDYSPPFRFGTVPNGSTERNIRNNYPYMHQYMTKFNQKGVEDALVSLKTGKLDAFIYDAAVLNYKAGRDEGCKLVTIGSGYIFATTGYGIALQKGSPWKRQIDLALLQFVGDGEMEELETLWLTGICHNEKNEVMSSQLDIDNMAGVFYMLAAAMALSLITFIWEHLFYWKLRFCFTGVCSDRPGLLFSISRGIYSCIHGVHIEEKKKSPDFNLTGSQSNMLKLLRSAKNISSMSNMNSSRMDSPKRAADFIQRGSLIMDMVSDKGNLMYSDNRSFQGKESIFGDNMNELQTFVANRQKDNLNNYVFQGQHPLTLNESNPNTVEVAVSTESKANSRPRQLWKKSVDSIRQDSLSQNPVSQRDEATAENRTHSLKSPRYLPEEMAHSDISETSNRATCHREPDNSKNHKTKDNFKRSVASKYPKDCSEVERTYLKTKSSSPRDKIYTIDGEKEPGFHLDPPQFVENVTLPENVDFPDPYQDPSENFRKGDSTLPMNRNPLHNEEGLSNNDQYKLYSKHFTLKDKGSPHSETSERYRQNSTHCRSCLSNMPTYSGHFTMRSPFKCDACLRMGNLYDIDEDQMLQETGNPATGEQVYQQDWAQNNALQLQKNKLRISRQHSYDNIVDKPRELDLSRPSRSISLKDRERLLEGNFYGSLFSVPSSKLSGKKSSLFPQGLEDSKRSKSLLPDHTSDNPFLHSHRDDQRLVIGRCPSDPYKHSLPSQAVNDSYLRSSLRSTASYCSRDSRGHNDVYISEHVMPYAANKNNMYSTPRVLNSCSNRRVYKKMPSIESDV

As to `C[C@H](CCC[C@@H](C)O)[C@H]1CC[C@H]2[C@@H]3CC[C@H]4C[C@](O)(C(F)(F)F)CC[C@]4(C)[C@H]3CC[C@]12C` [Compound 112], the maximum response (Emax) in experiment [1] (setting [3]) is 151%; in experiment [2] (setting [4]), 92.6%.

For the molecule `CC(C)C(O)CC[C@@H](C)[C@H]1CC[C@H]2[C@@H]3CC[C@H]4C[C@@](C)(O)CC[C@@H]4[C@H]3CC[C@]12C` (some centres unmarked) [Compound 175], the concentration for a half-maximal effect (EC50) in experiment [1] amounted to 288 nM; in experiment [2], 574 nM. The maximum response (Emax) in experiment [1] (setting [3]) amounted to 279%; in experiment [2] (setting [4]), 367%.

As to `CC[C@]1(O)CC[C@H]2C(=CC[C@@H]3[C@@H]2CC[C@]2(C)[C@@H]([C@H](C)CCCC(C)(C)O)CC[C@@H]32)C1` [Compound 194], the values for the Emax in experiment [1] (setting [3]) and in experiment [2] (setting [4]) were 192% and 162%, respectively. The EC50 in experiment [2] (setting [5]) worked out at 200 nM.

As to `C[C@H](CCC(O)c1cccnc1)[C@H]1CC[C@H]2[C@@H]3CC=C4C[C@@](C)(O)CC[C@]4(C)[C@H]3CC[C@]12C` (some centres unmarked) [Compound 255], the maximal effect (Emax) in experiment [1] (setting [3]) amounted to 132%; in experiment [2] (setting [4]), 159%. Further, the figures for the half-maximal effective concentration (EC50) in experiment [1] (setting [6]) and in experiment [2] (setting [5]) were 153 nM and 646 nM, respectively.

With `C[C@H](CCC(O)c1ccccc1)[C@H]1CC[C@H]2[C@@H]3CC=C4C[C@@](C)(O)CC[C@]4(C)[C@H]3CC[C@]12C` (some centres unmarked) [Compound 356], the half-maximal effective concentration (EC50) in experiment [1] is 923 nM; in experiment [2], 415 nM. Also, the Emax in experiment [1] (setting [3]) turned out to be 156%; in experiment [2] (setting [4]) it was 59.6%.

Consider `CC[C@]1(O)CC[C@H]2[C@@H](CC[C@@H]3[C@@H]2CC[C@]2(C)[C@@H]([C@H](C)CCCO)CC[C@@H]32)C1` [Compound 376], for which the EC50 in experiment [1] and in experiment [2] was over 10000 nM in each case. Also, the values for the Emax in experiment [1] (setting [3]) and in experiment [2] (setting [4]) were 59.8% and 49.9%, respectively.

Consider `C[C@H](CCC(C)(O)c1ccccc1)[C@H]1CC[C@H]2[C@@H]3CC=C4C[C@@](C)(O)CC[C@]4(C)[C@H]3CC[C@]12C` (some centres unmarked) [Compound 456], for which the Emax is 74.8% in experiment [1] and 53.4% in experiment [2] (HEK293, read-out: Avg Emax 2A (%)).

On to `CC[C@]1(O)CC[C@H]2[C@@H](CC[C@@H]3[C@@H]2CC[C@]2(C)[C@@H]([C@H](C)CCC(O)C(C)C)CC[C@@H]32)C1` (some centres unmarked) [Compound 476], for which the EC50 in experiment [1] worked out at 189 nM; in experiment [2], 406 nM. The Emax is 399% in experiment [1] (setting [3]) and 811% in experiment [2] (setting [4]).

`C[C@H](CCC(O)(c1ccccc1)C(F)(F)F)[C@H]1CC[C@H]2[C@@H]3CC=C4C[C@@](C)(O)CC[C@]4(C)[C@H]3CC[C@]12C` (some centres unmarked) [Compound 559]: the maximum response (Emax) in experiment [1] (setting [3]) amounted to 373%; in experiment [2] (setting [4]), 204%.

Turning to `C[C@H](CCC(O)Cc1ccccc1)[C@H]1CC[C@H]2[C@@H]3CC=C4C[C@@](C)(O)CC[C@]4(C)[C@H]3CC[C@]12C` (some centres unmarked) [Compound 660], the values for the Emax in experiment [1] (setting [3]) and in experiment [2] (setting [4]) were 281% and 195%, respectively.

Take `CC[C@]1(O)CC[C@H]2[C@@H](CC[C@@H]3[C@@H]2CC[C@]2(C)[C@@H]([C@H](C)CCC(C)(C)O)CC[C@@H]32)C1` [Compound 679]: the maximal effect (Emax) turned out to be 172% in experiment [1] (setting [3]) and 105% in experiment [2] (setting [4]). For the same molecule, the EC50 in experiment [1] (setting [6]) is 280 nM; in experiment [2] (setting [5]), 5110 nM.

On to `CC[C@]1(O)CC[C@@]2(C)C(=CC[C@H]3[C@@H]4CC[C@H]([C@H](C)CCC(O)c5ccccc5)[C@@]4(C)CC[C@@H]32)C1` (some centres unmarked) [Compound 761], for which the EC50 in experiment [1] was 249 nM; in experiment [2], 476 nM. For the same molecule, the results for the Emax in experiment [1] (setting [3]) and in experiment [2] (setting [4]) were 197% and 302%, respectively.

In the case of `CC[C@]1(O)CC[C@H]2C(=CC[C@@H]3[C@@H]2CC[C@]2(C)[C@@H]([C@H](C)CCC(C)(C)O)CC[C@@H]32)C1` [Compound 780], the maximal effect (Emax) stood at 170% in experiment [1] (setting [3]) and 132% in experiment [2] (setting [4]). Besides, the half-maximal effective concentration (EC50) in experiment [1] (setting [6]) amounted to 263 nM; in experiment [2] (setting [5]) it was 341 nM.

As for `CC[C@]1(O)CC[C@@]2(C)C(=CC[C@H]3[C@@H]4CC[C@H]([C@H](C)CC[C@@H](O)c5ccccc5)[C@@]4(C)CC[C@@H]32)C1` [Compound 861], the values for the EC50 in experiment [1] and in experiment [2] were 247 nM and 200 nM, respectively. Also, the maximal effect (Emax) was 390% in experiment [1] (setting [3]) and 183% in experiment [2] (setting [4]).

For `CC[C@]1(O)CC[C@@]2(C)C(=CC[C@H]3[C@@H]4CC[C@H]([C@H](C)CC[C@H](O)c5ccccc5)[C@@]4(C)CC[C@@H]32)C1` [Compound 961], the half-maximal effective concentration (EC50) in experiment [1] is 180 nM; in experiment [2], 617 nM. For the same molecule, the Emax in experiment [1] (setting [3]) was 97.4%; in experiment [2] (setting [4]) it was 138%.

Regarding `C[C@H](CCC(C)(C)O)[C@H]1CC[C@H]2[C@@H]3CC=C4C[C@](O)(C(F)(F)F)CC[C@]4(C)[C@H]3CC[C@]12C` [Compound 1839], the maximal response (Emax) in experiment [1] (setting [3]) was found to be 568%; in experiment [2] (setting [4]), 493%. Further, the concentration giving a half-maximal response (EC50) in experiment [2] (setting [5]) is 295 nM.

In the case of `C[C@H](CCC1(O)CCOC1)[C@H]1CC[C@H]2[C@@H]3CC[C@H]4C[C@](O)(C(F)(F)F)CC[C@]4(C)[C@H]3CC[C@]12C` (some centres unmarked) [Compound 1967], the results for the EC50 in experiment [1] and in experiment [2] were 113 nM and 171 nM, respectively. Moreover, the Emax in experiment [1] (setting [3]) came out at 374%; in experiment [2] (setting [4]), 347%.

As for `C[C@H](CC[C@H](O)C1CCOCC1)[C@H]1CC[C@H]2[C@@H]3CC[C@H]4C[C@](O)(C(F)(F)F)CC[C@]4(C)[C@H]3CC[C@]12C` [Compound 2080], the values for the EC50 in experiment [1] and in experiment [2] were 187 nM and 165 nM, respectively. Besides, the figures for the maximal response (Emax) in experiment [1] (setting [3]) and in experiment [2] (setting [4]) were 147% and 77.2%, respectively.

With `C[C@H](CC[C@@H](O)C1CCOCC1)[C@H]1CC[C@H]2[C@@H]3CC[C@H]4C[C@](O)(C(F)(F)F)CC[C@]4(C)[C@H]3CC[C@]12C` [Compound 2081], the figures for the half-maximal effective concentration (EC50) in experiment [1] and in experiment [2] were 175 nM and 129 nM, respectively. Besides, the values for the maximal response (Emax) in experiment [1] (setting [3]) and in experiment [2] (setting [4]) were 215% and 126%, respectively.

For the molecule `C[C@H](O)CCC[C@@H](C)[C@H]1CC[C@H]2[C@@H]3CC[C@H]4C[C@](O)(C(F)(F)F)CC[C@]4(C)[C@H]3CC[C@]12C` [Compound 2113], the values for the Emax in experiment [1] (setting [3]) and in experiment [2] (setting [4]) were 285% and 403%, respectively.

On to `C[C@H](CC[C@H](O)C(C)(C)C)[C@H]1CC[C@H]2[C@@H]3CC[C@H]4C[C@](O)(C(F)(F)F)CC[C@]4(C)[C@H]3CC[C@]12C` [Compound 2184], for which the EC50 in experiment [1] was 80 nM; in experiment [2] it was 65.8 nM.

Consider `C[C@H](CC[C@@H](C)O)[C@H]1CC[C@H]2[C@@H]3CC[C@H]4C[C@](O)(C(F)(F)F)CC[C@]4(C)[C@H]3CC[C@]12C` [Compound 2285], for which the results for the EC50 in experiment [1] and in experiment [2] were 494 nM and 764 nM, respectively. Moreover, the Emax came out at 220% in experiment [1] (setting [3]) and 205% in experiment [2] (setting [4]).

Regarding `C[C@H](CCC1(O)CCC(F)(F)CC1)[C@H]1CC[C@H]2[C@@H]3CC=C4C[C@](O)(C(F)(F)F)CC[C@]4(C)[C@H]3CC[C@]12C` [Compound 2392], the values for the EC50 in experiment [1] and in experiment [2] were 47.5 nM and 104 nM, respectively.

For the molecule `C[C@H](CCCO)[C@H]1CC[C@H]2[C@@H]3CC[C@H]4C[C@](O)(C(F)(F)F)CC[C@]4(C)[C@H]3CC[C@]12C` [Compound 2499], the 50% effective concentration (EC50) came to 751 nM in experiment [1] and 768 nM in experiment [2]. For the same molecule, the values for the maximal response (Emax) in experiment [1] (setting [3]) and in experiment [2] (setting [4]) were 238% and 180%, respectively.
